Laboratory results as given in patent publication US10160785B2, “Antimicrobial peptides and their use for the treatment of topical infections” (priority 2015, dated 2018).
Where a SMILES comes first, the peptide text is derived from it.

Assays:
in vitro = details: human
In short: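 Hemolysis expressed as LC50, the concentration giving 50% erythrocyte lysis. Supernatant A540 was scaled between buffer-only blank and 0.2% Triton X100 total lysis after 1 h, 37 °C exposure of 5% v/v human red cells to 2-200 μmol.l^−1 peptide in physiological solution.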

[1] = test system: S. aureus (Liberec) biofilm; experiment: Bacterial biofilm, remaining metabolic activity (MTT); assay type: cell-based, Staphylococcus aureus; details: remaining metabolic activity of biofilm, 20 h
In short: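 Biofilms of S. aureus or P. aeruginosa (Liberec) were grown 24 h at 37° C with shaking in BHI plus 1% glucose from ca. 10^8 CFU/ml inocula. After washing, biofilms were exposed 20 h to peptides at 1–128 μmol.l^−1. Surviving metabolic activity was measured by MTT (40 min, formazan in DMSO, A540) as percent of untreated biofilm, blank-corrected.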

[2] = test system: P. aeruginosa (Liberec) biofilm; experiment: as above; assay type: cell-based, Pseudomonas aeruginosa; details: remaining metabolic activity of biofilm, 20 h
Protocol: Inoculum of S. aureus (Liberec) or P. aeruginosa (Liberec) cultivated overnight in BHI medium was diluted with fresh BHI medium containing 1% glucose to a final concentration to be ca. 10^8 CFU/ml. Then this was pipetted (100 μl) to 96-multiwell polystyrene plate which was incubated at 37° C. under rotary shaking (300 RPM) for 24 h. Medium without bacteria in the wells was used as a negative control. Supernatant from each well was drained and the biofilm formed on the bottom and on the walls of the wells was cautiously washed three times by sterile physiological solution (300 μl). The peptides tested in the concentrations of 1-128 μmol.l^−1 were prepared by twofold serial dilution of their stock solution (1 mmol.l^−1) in fresh BHI medium and then pipetted (100 μl) to the wells with formed biofilms. The biofilms covered by BHI medium without peptide were used as a positive control. The plates were then incubated for 20 h as described above. After that the liquid was drained out and wells were washed twice with sterile physiological solution.
The metabolic activity of surviving bacterial cells in the biofilm was determined by staining with MTT (3-(4,5-dimethylthiazol-2-yl)-2,5-diphenyl-2H-tetrazolium bromide) as follows: The mixture of BHI medium (100 μl) and 10 μl of the stock solution of MTT (5 mg/ml in physiological solution) was added to each well and the plate was incubated 40 min at 37° C. The liquid was drained out and the insoluble formazan crystals formed by reduction inside the biofilm were dissolved with dimethyl sulphoxide (100 μl). The intensity of staining in each well was measured as absorbance at 540 nm on a Tecan Infinite M200 Pro reader (Tecan GmbH, Austria). Remaining activity of surviving cells inside the biofilm was expressed for each well in percentage according to the following equation:
[formula] where A is the absorbance of the tested compound, ABL is the absorbance of the negative control, and AC is the absorbance of control biofilm.

[3] = test system: Candida albicans (Olomouc) biofilm; experiment: C. albicans biofilm, remaining metabolic activity (XTT); assay type: cell-based
Protocol: Candida albicans (Olomouc) was sub-cultured overnight in YPD medium (10 g yeast extract (DIFCO, USA), 20 g peptone (OXOID), 20 g glucose (Penta) dissolved in 1 L of distilled water) at constant shaking (100 RPM) at 37° C. Next day, the overnight culture was diluted 1:100 into fresh YPD medium and incubated at constant shaking (200 RPM) at 37° C. until the mid-exponential growth phase was reached. Then the cells were harvested and washed twice by centrifugation in physiological solution (5000 RPM; 5 min). Cells were suspended in sterile salt solution and their optical density was determined at 600 nm.
A final yeast suspension was prepared at a cell density of 1×10^6 CFU (corresponding to optical density of 0.17 at 600 nm) in RPMI 1640 medium with L-glutamine (BioSera), NaHCO3 (2 g/l; Penta) and 0.165 mol.l^−1 MOPS (Duchefa)—further as RPMI broth medium 1.
Biofilms were formed on commercially available sterile, polystyrene, flat-bottomed, 96-well microtiter plates (TPP, SW). Cell suspension (100 μl) was pipetted into selected wells of a microtiter plate and incubated without shaking for 2 hours at 37° C. Afterwards, the wells were washed twice with sterile PBS buffer (1.44 g Na2HPO4, 0.24 g KH2PO4, 0.2 g KCl and 8 g NaCl in 1 l distilled water, pH=7; Penta). Fresh RPMI broth medium 1 (100 μl) was added to each well and the plate was sealed with parafilm and incubated without shaking for 48 hours at 37° C.
Planktonic and non-adherent cells were removed by threefold washing of the biofilm with sterile PBS buffer (200 μl). A twofold serial dilution was used to reach required peptide concentration (in RPMI broth medium 1) in each well. Peptide concentrations range was between 0.39-200 μmol.l^−1. Plates were then sealed with parafilm and incubated for 20 hours at 37° C.
The metabolic activity of surviving Candida cells in the treated biofilm was determined by staining with XTT (2,3-Bis(2-methoxy-4-nitro-5-sulphophenyl)-2H-tetrazolium-5-carboxanilide). Stock solution of PMS (phenazine methosulfate; 7.5 g/l; SIGMA, Czech Republic) stored at −20° C. was diluted in PBS buffer 1:100. Diluted PMS was further mixed (2:25) with stock solution of XTT (0.5 g/l; Alchimica, Slovakia) dissolved in PBS/RPMI broth medium (1:1). Mixture (100 μl) of PMS and XTT was added into treated biofilm in the wells and incubated for 90 min at 37° C. Then the intensity of staining in each well was measured as absorbance at 540 nm on a Tecan Infinite M200 Pro reader (Tecan GmbH, Austria). Remaining metabolic activity of the cells in the biofilm was expressed for each well in percentage and calculated as follows:
[formula] where A is the absorbance of tested compound, ABL is the absorbance of negative control and AC is the absorbance of control untreated biofilm. The non-inoculated wells served as negative control. Inoculated wells not treated with compound served as positive control. Amphotericin B was used as control drug to ensure quality of Candida albicans. The values of remaining metabolic activity of treated biofilms are shown at Table 5.

C. glabrata ATCC 2001 = experiment: Lethal effect on yeast cells by plating test; assay type: cell-based, Candida glabrata; details: 15 minutes exposure, peptide alone, FIG. 1B
Protocol: C. glabrata ATCC 2001 cells were aerobically cultivated at 30° C. on YPD medium (Formedium) overnight. A small volume of inoculum was added to fresh YPD medium to final concentration of cells 5×10^6 CFU/ml (corresponding value OD600=0.2). Yeast cells were cultivated at 30° C. (190 rpm) until they reach early exponential growth phase, usually further 4-5 h. Cells were harvested, washed twice with distilled water (1.5 min, 3000 g) and resuspended in MES-TEA buffer (10 mM 4-morpholineethanesulphonic acid, pH 6.0 adjusted with triethanolamine, both chemicals from Sigma-Aldrich) to OD600=0.2.
Cells from the early exponential growth phase were washed twice with sterile distilled water (1.5 min, 3000 g) and resuspended in MES-TEA buffer to OD600=0.2. The cell suspension was divided into 1 ml aliquots in Eppendorf tubes. One sample served as a control, the tested compounds (peptides, ODDC) were added in selected concentrations to the rest of samples. Cells were incubated with drugs with occasional gentle stirring for 15 minutes, then 10 μl of cells were diluted 100-fold in distilled water and 15 μl aliquots were spread on 2% YPD agar (Formedium) plates (diameter of Petri plate 9 cm). The samples were always plated in triplicates. The number of colonies was determined after 24-h incubation of the plates at 30° C. […]

[4] = peptide concentration 8 μmol · l^−1
[5] = peptide concentration 16 μmol · l^−1
[6] = peptide concentration 32 μmol · l^−1
[7] = peptide concentration 64 μmol · l^−1
[8] = peptide concentration 128 μmol · l^−1

Q: For `CC[C@@H](C)[C@@H](NC(=O)CN)C(=O)N[C@H](CCSC)C(=O)N[C@H](CO)C(=O)N[C@H](CO)C(=O)N[C@H](CC(C)C)C(=O)N[C@H](CCSC)C(=O)N[C@H](CCCCN)C(=O)N[C@H](CCCCN)C(=O)N[C@H](CC(C)C)C(=O)N[C@H](CCCCN)C(=O)N[C@H](CCCCN)C(=O)N[C@@H](C(=O)N[C@@H](C(=O)N[C@H](C)C(=O)N[C@H](CCCCN)C(N)=O)[C@H](C)CC)[C@H](C)CC` [II] (HELM PEPTIDE1{G.[dI].[dM].[dS].[dS].[dL].[dM].[dK].[dK].[dL].[dK].[dK].[dI].[dI].[dA].[dK].[am]}$$$$V2.0), which CC50 at 1 h (in vitro) is on record?
A: The CC50 at 1 h was over 400 µM.

Q: And the “Metabolic activity (%) S. aureus (Liberec)” value [1, 4]?
A: Its value is 143.1%.

Q: What about the “Metabolic activity (%) S. aureus (Liberec)” value [1, 5] of the same compound?
A: Its value is 138.8%.

Q: What about the “Metabolic activity (%) S. aureus (Liberec)” value [1, 6] of the same compound?
A: Its value is 107.5%.

Q: What about the “Metabolic activity (%) S. aureus (Liberec)” value [1, 7] of the same compound?
A: Its value is 29.9%.

Q: What about the “Metabolic activity (%) S. aureus (Liberec)” value [1, 8] of the same compound?
A: The value was 7.7%.

Q: What about the “Metabolic activity (%) P. aeruginosa (Liberec)” value [2, 4] of the same compound?
A: The value was 94.2%.

Q: And the “Metabolic activity (%) P. aeruginosa (Liberec)” value [2, 5]?
A: Its value is 100.5%.

Q: And the “Metabolic activity (%) P. aeruginosa (Liberec)” value [2, 6]?
A: The value was 79.1%.

Q: What about the “Metabolic activity (%) P. aeruginosa (Liberec)” value [2, 7] of the same compound?
A: Its value is 33.0%.

Q: What about the “Metabolic activity (%) P. aeruginosa (Liberec)” value [2, 8] of the same compound?
A: The value was 26.7%.

Q: What about the “Metabolic activity of C. albicans (%)” value ([3]; peptide concentration 6.25 μmol · l^−1, 20 hours) of the same compound?
A: Its value is 105.3%.

Q: What about the “Metabolic activity of C. albicans (%)” value ([3]; peptide concentration 12.5 μmol · l^−1, 20 hours) of the same compound?
A: The value was 114.2%.

Q: And the “Metabolic activity of C. albicans (%)” value ([3]; peptide concentration 25 μmol · l^−1, 20 hours)?
A: Its value is 35.2%.

Q: What about the “Metabolic activity of C. albicans (%)” value ([3]; peptide concentration 50 μmol · l^−1, 20 hours) of the same compound?
A: Its value is 1.0%.

Q: What about the “Metabolic activity of C. albicans (%)” value ([3]; peptide concentration 100 μmol · l^−1, 20 hours) of the same compound?
A: Its value is 0.0%.

Q: And the “Metabolic activity of C. albicans (%)” value ([3]; peptide concentration 200 μmol · l^−1, 20 hours)?
A: Its value is 0.0%.

Q: What about the “antifungal (lethal) effect in plating test” value (C. glabrata ATCC 2001) of the same compound?
A: Its value is “high antifungal effect”.
